Data reported in article PMC9950949 (iScience, 2023).

Target: NLRP3 (Homo sapiens, UniProt Q96P20)
Experiment: microscale thermophoresis
Format: binding

Chain of NLRP3 (Q96P20 whole entry): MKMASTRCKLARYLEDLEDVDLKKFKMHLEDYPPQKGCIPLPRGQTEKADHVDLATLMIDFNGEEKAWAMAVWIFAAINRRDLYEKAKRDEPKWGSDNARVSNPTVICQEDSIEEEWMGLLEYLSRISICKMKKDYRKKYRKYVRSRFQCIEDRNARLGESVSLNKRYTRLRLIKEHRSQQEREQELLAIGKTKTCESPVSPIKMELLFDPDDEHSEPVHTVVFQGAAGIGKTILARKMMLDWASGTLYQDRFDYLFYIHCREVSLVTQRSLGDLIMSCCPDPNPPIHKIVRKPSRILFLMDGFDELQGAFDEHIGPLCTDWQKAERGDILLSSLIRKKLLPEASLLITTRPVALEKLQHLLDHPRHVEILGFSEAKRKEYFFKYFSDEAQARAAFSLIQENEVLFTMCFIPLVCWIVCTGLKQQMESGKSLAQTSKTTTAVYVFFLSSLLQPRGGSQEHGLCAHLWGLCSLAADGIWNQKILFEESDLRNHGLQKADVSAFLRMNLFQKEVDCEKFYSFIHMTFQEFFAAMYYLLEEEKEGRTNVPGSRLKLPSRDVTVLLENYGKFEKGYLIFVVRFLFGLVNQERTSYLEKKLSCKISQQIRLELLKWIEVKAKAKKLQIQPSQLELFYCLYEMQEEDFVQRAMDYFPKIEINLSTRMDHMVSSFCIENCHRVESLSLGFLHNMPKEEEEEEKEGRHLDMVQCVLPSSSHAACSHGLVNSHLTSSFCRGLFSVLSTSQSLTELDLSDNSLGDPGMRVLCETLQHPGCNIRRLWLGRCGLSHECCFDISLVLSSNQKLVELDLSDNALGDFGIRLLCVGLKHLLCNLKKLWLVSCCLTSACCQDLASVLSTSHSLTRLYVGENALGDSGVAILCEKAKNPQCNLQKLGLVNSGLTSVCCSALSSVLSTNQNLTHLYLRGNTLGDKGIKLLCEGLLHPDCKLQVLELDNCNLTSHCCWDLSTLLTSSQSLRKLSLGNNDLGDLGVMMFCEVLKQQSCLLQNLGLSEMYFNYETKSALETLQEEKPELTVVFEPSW

Kd: ~373 nM
SMILES: O=C1NC(=O)[C@@H](c2cn3c4c(cccc24)CCC3)[C@@H]1c1c[nH]c2ccccc12 [Tivantinib]
